According to BindingDB's records for doi:10.1016/0960-894X(96)00211-9 (1996):
Structures can show the parent of a compound that is named as a salt.

Assay: Inhibition of Endothelin-converting enzyme of guinea pig lung membrane

Compound	IC50
CC(C)CC(NC(=O)[C@H](CCCCNC(=O)OCc1ccccc1)NS(C)(=O)=O)=P(O)(O)CC(CC(C)C)C(=O)N[C@@H](Cc1c[nH]c2ccccc12)C(=O)O (stereo partly drawn) [(S)-2-(2-{[1-((S)-6-Benzyloxycarbonylamino-2-methanesulfonylamino-hexanoylamino)-3-methyl-butyl]-hydroxy-phosphinoylmethyl}-4-methyl-pentanoylamino)-3-(1H-indol-3-yl)-propionic acid; Disodium salt]	40 nM
CC(C)CC(CP(O)(O)=C(Cc1ccc2ccccc2c1)NC(=O)[C@H](CCCCN)NS(C)(=O)=O)C(=O)N[C@@H](Cc1c[nH]c2ccccc12)C(=O)O (stereo partly drawn) [(S)-2-(2-{[1-((S)-6-Amino-2-methanesulfonylamino-hexanoylamino)-2-naphthalen-2-yl-ethyl]-hydroxy-phosphinoylmethyl}-4-methyl-pentanoylamino)-3-(1H-indol-3-yl)-propionic acid; Disodium salt]	65 nM
CC(C)C(CP(O)(O)=C(Cc1ccccc1)NC(=O)[C@H](CCCCNC(=O)OCc1ccccc1)NS(C)(=O)=O)C(=O)N[C@@H](Cc1c[nH]c2ccccc12)C(=O)O (stereo partly drawn) [(S)-2-(2-{[1-((S)-6-Benzyloxycarbonylamino-2-methanesulfonylamino-hexanoylamino)-2-phenyl-ethyl]-hydroxy-phosphinoylmethyl}-3-methyl-butyrylamino)-3-(1H-indol-3-yl)-propionic acid; Disodium salt]	390 nM

Next, values leading:

IC50	Compound
800 nM	CC(C)C(CP(O)(O)=C(Cc1ccc2ccccc2c1)NC(=O)[C@H](CCCCNC(=O)OCc1ccccc1)NS(C)(=O)=O)C(=O)N[C@@H](Cc1c[nH]c2ccccc12)C(=O)O (stereo partly drawn) [(S)-2-(2-{[1-((S)-6-Benzyloxycarbonylamino-2-methanesulfonylamino-hexanoylamino)-2-naphthalen-2-yl-ethyl]-hydroxy-phosphinoylmethyl}-3-methyl-butyrylamino)-3-(1H-indol-3-yl)-propionic acid; Disodium salt]
160 nM	CC(C)CC(CP(O)(O)=C(Cc1ccccc1)NC(=O)[C@H](CC(C)C)NC(=O)OCc1ccccc1)C(=O)N[C@@H](Cc1c[nH]c2ccccc12)C(=O)O (stereo partly drawn) [(S)-2-(2-{[1-((S)-2-Benzyloxycarbonylamino-4-methyl-pentanoylamino)-2-phenyl-ethyl]-hydroxy-phosphinoylmethyl}-4-methyl-pentanoylamino)-3-(1H-indol-3-yl)-propionic acid; Disodium salt]

Assay: Compound was tested for inhibitory activity against Endothelin-converting enzyme isolated from guinea pig lung membrane.

IC50	Compound
3300 nM	CC(C)CC(CP(O)(O)=C(Cc1ccc2ccccc2c1)NC(=O)OCc1ccccc1)C(=O)N[C@@H](Cc1c[nH]c2ccccc12)C(=O)O (stereo partly drawn) [(S)-2-{2-[(1-Benzyloxycarbonylamino-2-naphthalen-2-yl-ethyl)-hydroxy-phosphinoylmethyl]-4-methyl-pentanoylamino}-3-(1H-indol-3-yl)-propionic acid; Disodium salt]
